Source: US10010614B2, “Derivatives of GLP-1 like peptides, and uses thereof” (Novo Nordisk A/S, priority 2013, dated 2018)
Where two headings read alike, the source gives them in different places. Numbered stars: 1 amine (or outer) side, 2 acyl side, 3 side chain; on linkers, the order of the positions; unused ones are H or OH. Square brackets hold non-standard residues; d marks the D form. Side chains are listed from the residue outwards. Peptide text beside a SMILES is read from it. * marks the point of attachment. X2 = O=C(O)CCCCCCCCCCCCCCCCCCC(=O)NC[C@H]1CC[C@H](C(=O)N[C@@H](CCC(=O)NCCOCCOCCN*)C(=O)O)CC1; X4 = O=C(O)CCCCCCCCCCCCCCCCCCC(=O)N1CCC(C(=O)N[C@@H](CCC(=O)NCCCOCCOCCOCCCN*)C(=O)O)CC1; X3 = O=C(O)CCCCCCCCCCCCCCCCCCC(=O)N[C@@H](CCC(=O)NCCCOCCOCCOCCCNC(=O)COCC(=O)*)C(=O)O; C20 diacid = O=C(O)CCCCCCCCCCCCCCCCCCC(=O)*; γGlu = O=C(O)[C@H](CCC(=O)[*:2])N[*:1]; Trx = NC[C@H]1CC[C@H](C(=O)O)CC1; Suc = O=C(CCC(=O)[*:2])[*:1]; AEEA = NCCOCCOCC(=O)O; Aib = CC(C)(N)C(=O)O

How the values were obtained:
human GLP-1 receptor [1] = molecular target: T1, human GLP-1 receptor (Homo sapiens, UniProt P43220); test: GLP-1 receptor binding, competitive binding assay (125I-GLP-1, SPA) on isolated membranes;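 further: test compounds added at a range of concentrations to membranes from cells expressing the human GLP-1 receptor, scored by displacement of labelled ligand, read with WGA SPA beads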
T1 construct: expressed in transfected cells; host or cells: membranes prepared from BHK cells (parent line BHKTS13), clone FCW467-12A
T1 sequence (P43220 24-463): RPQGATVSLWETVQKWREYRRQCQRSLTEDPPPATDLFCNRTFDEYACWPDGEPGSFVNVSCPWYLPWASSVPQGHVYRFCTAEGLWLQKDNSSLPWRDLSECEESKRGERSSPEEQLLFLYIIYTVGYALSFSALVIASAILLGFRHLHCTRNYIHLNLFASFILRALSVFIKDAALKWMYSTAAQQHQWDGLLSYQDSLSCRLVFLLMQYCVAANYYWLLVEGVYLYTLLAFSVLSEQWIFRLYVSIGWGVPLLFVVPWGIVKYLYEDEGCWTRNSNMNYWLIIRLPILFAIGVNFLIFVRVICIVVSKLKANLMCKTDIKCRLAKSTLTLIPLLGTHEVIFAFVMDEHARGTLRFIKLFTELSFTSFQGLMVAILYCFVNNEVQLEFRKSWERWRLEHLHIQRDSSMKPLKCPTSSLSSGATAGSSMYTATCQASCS

human GLP-1 receptor [2] = molecular target: T1, human GLP-1 receptor; test: In vitro potency, CRE luciferase reporter gene assay in BHK cells expressing the human GLP-1 receptor; type: cell-based; conditions: whole cell reporter gene assay, 3 h incubation, no HSA, averages of at least two replicates
Procedure: The purpose of this example is to test the activity, or potency, of the GLP-1 derivatives in vitro. The in vitro potency is the measure of human GLP-1 receptor activation in a whole cell assay.
Semaglutide was included for comparison.
In vitro potency was determined by measuring the response of the human GLP-1 receptor in a reporter gene assay. The assay was performed in a stably transfected BHK cell line that expresses the human GLP-1 receptor and contains the DNA for the cAMP response element (CRE) coupled to a promoter and the gene for firefly luciferase (CRE luciferase). When the human GLP-1 receptor is activated it results in the production of cAMP, which in turn results in the luciferase protein being expressed. When assay incubation is completed the luciferase substrate (luciferin) is added and the enzyme converts luciferin to oxyluciferin to produce bioluminescence. The luminescence is measured as the readout for the assay.
The cells used in this assay (clone FCW467-12A/KZ10-1) were BHK cells with BHKTS13 as a parent cell line. The cells were derived from a clone (FCW467-12A) that expresses the human GLP-1 receptor and were established by further transfection with CRE luciferase to obtain the current clone.
The cells were cultured at 5% CO2 in Cell Culture Medium. They were aliquoted and stored in liquid nitrogen. Before each assay an aliquot is taken up and washed twice in PBS before being suspended at the desired concentration in the assay specific buffer. For 96-well plates the suspension was made to give a final concentration of 5×10^3 cells/well.
The following chemicals were used in the assay: Pluronic F-68 (10%) (Gibco 2404), human serum albumin (HSA) (Sigma A9511), ovalbumin (Sigma A5503), DMEM w/o phenol red (Gibco 11880-028), 1 M Hepes (Gibco 15630), Glutamax 100× (Gibco 35050) and steadylite plus (PerkinElmer 6016757).
Cell Culture Medium consisted of DMEM medium with 10% FBS (Fetal Bovine Serum; Invitrogen 16140-071), 1 mg/ml G418 (Invitrogen 15140-122), 240 nM MTX (methotrexate; Sigma M9929) and 1% pen/strep (penicillin/streptomycin; Invitrogen 15140-122).
Assay Medium consisted of DMEM w/o phenol red, 10 mM Hepes and 1× Glutamax. The Assay Buffer consisted of 2% ovalbumin and 0.2% Pluronic F-68 in Assay Medium.
1) Cell stocks were thawed in a 37° C. water bath.
2) Cells were washed three times in PBS.
3) The cells were counted and adjusted to 5×10^3 cells/50 μl (1×10^5 cells/ml) in Assay Medium. A 50 μl aliquot of cells was transferred to each well in the assay plate.
4) Stocks of the test compounds and reference compounds were diluted to a concentration of 0.2 μM in Assay Buffer. Compounds were diluted 10-fold to give the following concentrations: 2×10^−7 M, […]; 2×10^−9 M, 2×10^−10 M, 2×10^−11 M, 2×10^−12 M, 2×10^−13 M, and 2×10^−14 M. 5) A 50 μl aliquot of compound or blank was transferred from the dilution plate to the assay plate. Compounds were tested at the following final concentrations: 1×10^−7 M, 1×10^−8 M; 1×10^−9 M, 1×10^−10 M, 1×10^−11 M, 1×10^−12 M, 1×10^−13 M, and 1×10^−14 M. 6) The assay plate was incubated for 3 h in a 5% CO2 incubator at 37° C. 7) The assay plate was removed from the incubator and allowed to stand at room temperature for 15 min. 8) A 100 μl aliquot of steadylite plus reagent was added to each well of the assay plate (reagent was light sensitive). 9) Each assay plate was covered with aluminum foil to protect it from light and shaken for 30 min at room temperature. 10) Each assay plate was read in a Packard TopCount NXT instrument. Calculations and Results
The data from the TopCount instrument were transferred to GraphPad Prism software. The software performs a non-linear regression (log(agonist) vs response).
A minimum of two replicates was measured for each sample. The reported values are averages of the replicates.

[3] = High HSA IC50 (nM), high serum albumin (2.0% HSA final assay concentration)
[4] = Low HSA IC50 (nM), low serum albumin (max. 0.001% final assay concentration)

Row | Compound | IC50 (human GLP-1 receptor [1]; [3]) | IC50 (human GLP-1 receptor [1]; [4]) | EC50 (human GLP-1 receptor [2]) | IC50 (human GLP-1 receptor [1]; high serum albumin (2.0% HSA final assay concentration), read-out: High HSA IC50) | IC50 (human GLP-1 receptor [1]; low serum albumin (max. 0.001% final assay concentration), read-out: Low HSA IC50)
1 | CC[C@H](C)[C@H](NC(=O)[C@H](Cc1ccccc1)NC(=O)[C@H](CCC(=O)O)NC(=O)[C@H](CCCNC(=N)N)NC(=O)[C@H](C)NC(=O)[C@H](C)NC(=O)[C@H](CCC(N)=O)NC(=O)[C@H](CCC(=O)O)NC(=O)[C@H](CCC(=O)O)NC(=O)[C@H](CC(C)C)NC(=O)[C@H](Cc1ccc(O)cc1)NC(=O)[C@H](CO)NC(=O)[C@H](CO)NC(=O)[C@@H](NC(=O)[C@H](CC(=O)O)NC(=O)[C@H](CO)NC(=O)[C@@H](NC(=O)[C@H](Cc1ccccc1)NC(=O)[C@@H](NC(=O)CNC(=O)[C@H](CCC(=O)O)NC(=O)C(C)(C)NC(=O)[C@@H](N)Cc1c[nH]cn1)[C@@H](C)O)[C@@H](C)O)C(C)C)C(=O)N[C@@H](C)C(=O)N[C@@H](Cc1c[nH]c2ccccc12)C(=O)N[C@@H](CC(C)C)C(=O)N[C@H](C(=O)N[C@@H](CCCNC(=N)N)C(=O)NCC(=O)N[C@@H](CCCNC(=N)N)C(=O)NCC(=O)N[C@@H](CCCCNC(=O)CCC(=O)NCCCOCCOCCOCCCNC(=O)CC[C@H](NC(=O)C1CCN(C(=O)CCCCCCCCCCCCCCCCCCC(=O)O)CC1)C(=O)O)C(=O)NCC(=O)NCC(=O)N[C@@H](CO)C(=O)N[C@@H](CCCCNC(=O)CCC(=O)NCCCOCCOCCOCCCNC(=O)CC[C@H](NC(=O)C1CCN(C(=O)CCCCCCCCCCCCCCCCCCC(=O)O)CC1)C(=O)O)C(=O)O)C(C)C [Example 21] (H-H[Aib]EGTFTSDVSSYLEEQAAREFIAWLVRGRGK([Suc-X4])GGSK([Suc-X4])-OH; N-terminus and C-terminus assumed) | 177 nM | 1.3 nM | 0.019 nM | – | –
2 | CC[C@H](C)[C@H](NC(=O)[C@H](Cc1ccccc1)NC(=O)[C@H](CCC(=O)O)NC(=O)[C@H](CCCNC(=N)N)NC(=O)[C@H](C)NC(=O)[C@H](C)NC(=O)[C@H](CCC(N)=O)NC(=O)[C@H](CCC(=O)O)NC(=O)[C@H](CCC(=O)O)NC(=O)[C@H](CC(C)C)NC(=O)[C@H](Cc1ccc(O)cc1)NC(=O)[C@H](CO)NC(=O)[C@H](CO)NC(=O)[C@@H](NC(=O)[C@H](CC(=O)O)NC(=O)[C@H](CO)NC(=O)[C@@H](NC(=O)[C@H](Cc1ccccc1)NC(=O)[C@@H](NC(=O)CNC(=O)[C@H](CCC(=O)O)NC(=O)C(C)(C)NC(=O)[C@@H](N)Cc1c[nH]cn1)[C@@H](C)O)[C@@H](C)O)C(C)C)C(=O)N[C@@H](C)C(=O)N[C@@H](Cc1c[nH]c2ccccc12)C(=O)N[C@@H](CC(C)C)C(=O)N[C@H](C(=O)N[C@@H](CCCNC(=N)N)C(=O)NCC(=O)N[C@@H](CCCNC(=N)N)C(=O)NCC(=O)N[C@@H](CCCCNC(=O)COCC(=O)NCCCOCCOCCOCCCNC(=O)CC[C@H](NC(=O)CCCCCCCCCCCCCCCCCCC(=O)O)C(=O)O)C(=O)NCC(=O)NCC(=O)N[C@@H](CO)C(=O)N[C@@H](CCCCNC(=O)COCC(=O)NCCCOCCOCCOCCCNC(=O)CC[C@H](NC(=O)CCCCCCCCCCCCCCCCCCC(=O)O)C(=O)O)C(=O)O)C(C)C [Example 22, N{Alpha}([Aib8,Glu22,Arg26,Arg34]-GLP-1-(7-37)-peptidyl)-N{Epsilon}[2-[2-[3-[2-[2-[3-[[(4S)-4-carboxy-4-(19-carboxynonadecanoylamino)butanoyl]amino]propoxy]ethoxy]ethoxy]propylamino]-2-oxoethoxy]acetyl]Lys-Gly-Gly-Ser-N{Epsilon}[2-[2-[3-[2-[2-[3-[[(4S)-4-carboxy-4-(19-carboxynonadecanoylamino)butanoyl]amino]propoxy]ethoxy]ethoxy]propylamino]-2-oxoethoxy]acetyl]Lys] (H-H[Aib]EGTFTSDVSSYLEEQAAREFIAWLVRGRGK(X3)GGSK(X3)-OH; N-terminus and C-terminus assumed) | – | – | 0.01 nM | 194 nM | 0.82 nM
3 | CC[C@H](C)[C@H](NC(=O)[C@H](Cc1ccccc1)NC(=O)[C@H](CCC(=O)O)NC(=O)[C@H](CCCNC(=N)N)NC(=O)[C@H](C)NC(=O)[C@H](C)NC(=O)[C@H](CCC(N)=O)NC(=O)[C@H](CCC(=O)O)NC(=O)[C@H](CCC(=O)O)NC(=O)[C@H](CC(C)C)NC(=O)[C@H](Cc1ccc(O)cc1)NC(=O)[C@H](CO)NC(=O)[C@H](CO)NC(=O)[C@@H](NC(=O)[C@H](CC(=O)O)NC(=O)[C@H](CO)NC(=O)[C@@H](NC(=O)[C@H](Cc1ccccc1)NC(=O)[C@@H](NC(=O)CNC(=O)[C@H](CCC(=O)O)NC(=O)C(C)(C)NC(=O)[C@@H](N)Cc1c[nH]cn1)[C@@H](C)O)[C@@H](C)O)C(C)C)C(=O)N[C@@H](C)C(=O)N[C@@H](Cc1c[nH]c2ccccc12)C(=O)N[C@@H](CC(C)C)C(=O)N[C@H](C(=O)N[C@@H](CCCNC(=N)N)C(=O)NCC(=O)N[C@@H](CCCNC(=N)N)C(=O)NCC(=O)N[C@@H](CCCCNC(=O)CCC(=O)NCCOCCOCCNC(=O)CC[C@H](NC(=O)[C@H]1CC[C@H](CNC(=O)CCCCCCCCCCCCCCCCCCC(=O)O)CC1)C(=O)O)C(=O)NCC(=O)NCC(=O)N[C@@H](CO)C(=O)N[C@@H](CCCCNC(=O)CCC(=O)NCCOCCOCCNC(=O)CC[C@H](NC(=O)[C@H]1CC[C@H](CNC(=O)CCCCCCCCCCCCCCCCCCC(=O)O)CC1)C(=O)O)C(=O)O)C(C)C [Example 23] (H-H[Aib]EGTFTSDVSSYLEEQAAREFIAWLVRGRGK([Suc-X2])GGSK([Suc-X2])-OH) | 201 nM | 1.4 nM | 0.022 nM | – | –
4 | CC[C@H](C)[C@H](NC(=O)[C@H](Cc1ccccc1)NC(=O)[C@H](CCC(=O)O)NC(=O)[C@H](CCCNC(=N)N)NC(=O)[C@H](C)NC(=O)[C@H](C)NC(=O)[C@H](CCC(N)=O)NC(=O)[C@H](CCC(=O)O)NC(=O)[C@H](CCC(=O)O)NC(=O)[C@H](CC(C)C)NC(=O)[C@H](Cc1ccc(O)cc1)NC(=O)[C@H](CO)NC(=O)[C@H](CO)NC(=O)[C@@H](NC(=O)[C@H](CC(=O)O)NC(=O)[C@H](CO)NC(=O)[C@@H](NC(=O)[C@H](Cc1ccccc1)NC(=O)[C@@H](NC(=O)CNC(=O)[C@H](CCC(=O)O)NC(=O)C(C)(C)NC(=O)[C@@H](N)Cc1c[nH]cn1)[C@@H](C)O)[C@@H](C)O)C(C)C)C(=O)N[C@@H](C)C(=O)N[C@@H](Cc1c[nH]c2ccccc12)C(=O)N[C@@H](CC(C)C)C(=O)N[C@H](C(=O)N[C@@H](CCCNC(=N)N)C(=O)NCC(=O)N[C@@H](CCCNC(=N)N)C(=O)NCC(=O)N[C@@H](CCCCNC(=O)COCCOCCNC(=O)COCCOCCNC(=O)COCCOCCNC(=O)COCCOCCNC(=O)COCCOCCNC(=O)COCCOCCNC(=O)CC[C@H](NC(=O)[C@H]1CC[C@H](CNC(=O)CCCCCCCCCCCCCCCCCCC(=O)O)CC1)C(=O)O)C(=O)NCC(=O)NCC(=O)N[C@@H](CO)C(=O)N[C@@H](CCCCNC(=O)COCCOCCNC(=O)COCCOCCNC(=O)COCCOCCNC(=O)COCCOCCNC(=O)COCCOCCNC(=O)COCCOCCNC(=O)CC[C@H](NC(=O)[C@H]1CC[C@H](CNC(=O)CCCCCCCCCCCCCCCCCCC(=O)O)CC1)C(=O)O)C(=O)O)C(C)C [Example 24] (H-H[Aib]EGTFTSDVSSYLEEQAAREFIAWLVRGRGK([AEEA-AEEA-AEEA-AEEA-AEEA-AEEA-γGlu-Trx-C20 diacid])GGSK([AEEA-AEEA-AEEA-AEEA-AEEA-AEEA-γGlu-Trx-C20 diacid])-OH) | 84 nM | 0.67 nM | 0.007 nM | – | –
